ChEMBL document CHEMBL6109039, “Designed and synthesized novel tripeptides targeting diabetes and its related pathologies” (Eur J Med Chem, 2025)

Assays:
[1] = target: T1, Albumin (Homo sapiens, UniProt P02768); assay: Inhibition of D-fructose glycation in human serum albumin model by measuring ketoamine moieties incubated for 5 days by Nitroblue tetrazolium (NBT) reduction assay (reference value: 111.94 nmol/mL); conditions: 120 h, time 5 day
[2] = target: T1, Albumin; assay: Inhibition of D-fructose glycation in human serum albumin model assessed as reduction in fluorescence intensity incubated for 3 days by UV spectroscopic analysis relative to control; conditions: 72 h, time 3 day
[3] = target: T1, Albumin; assay: Inhibition of D-fructose glycation in human serum albumin model by measuring ketoamine moieties incubated for 33 days by Nitroblue tetrazolium (NBT) reduction assay (reference value: 144.33 nmol/mL); conditions: 792 h, time 33 day
[4] = target: T1, Albumin; assay: Inhibition of D-glucose glycation in human serum albumin by measuring absorbance at 279 nm model incubated for 14 days by UV spectroscopic analysis (reference value: 2.302); conditions: 336 h, time 14 day
[5] = target: T1, Albumin; assay: Inhibition of D-glucose glycation in human serum albumin model by measuring ketoamine moieties incubated for 3 days by Nitroblue tetrazolium (NBT) reduction assay (reference value: 24.27 nmol/mL); conditions: 72 h, time 3 day
[6] = target: T1, Albumin; assay: Inhibition of D-glucose glycation in human serum albumin model by measuring ketoamine moieties incubated for 30 days by Nitroblue tetrazolium (NBT) reduction assay (reference value: 27.85 nmol/mL); conditions: 720 h, time 30 day
[7] = target: T1, Albumin; assay: Inhibition of D-glucose glycation in human serum albumin model by measuring absorbance at 279 nm incubated for 30 days by UV spectroscopic analysis (reference value: 2.295); conditions: 720 h, time 30 day
[8] = target: T1, Albumin; assay: Inhibition of D-fructose glycation in human serum albumin model by measuring absorbance at 279 nm incubated for 26 days by UV spectroscopic analysis (reference value: 2.267); conditions: 624 h, time 26 day
[9] = target: T1, Albumin; assay: Inhibition of D-fructose glycation in human serum albumin model by measuring absorbance at 279 nm incubated for 33 days by UV spectroscopic analysis (Rvb =2.222); conditions: 792 h, time 33 day
[10] = target: T1, Albumin; assay: Inhibition of D-glucose glycation in human serum albumin model by measuring absorbance at 279 nm incubated for 5 days by UV spectroscopic analysis (reference value: 0.741); conditions: 120 h, time 5 day
[11] = target: T1, Albumin; assay: Inhibition of D-glucose glycation in human serum albumin model assessed as reduction in fluorescence intensity incubated for 3 days by UV spectroscopic analysis relative to control; conditions: 72 h, time 3 day
[12] = target: T1, Albumin; assay: Inhibition of D-fructose glycation in human serum albumin model incubated for 14 days by UV spectroscopic analysis relative to control; conditions: 336 h, time 14 day
[13] = target: T1, Albumin; assay: Inhibition of D-fructose glycation in human serum albumin model by measuring ketoamine moieties incubated for 26 days by Nitroblue tetrazolium (NBT) reduction assay (reference value: 118.21 nmol/mL); conditions: 624 h, time 26 day
[14] = target: T1, Albumin; assay: Inhibition of D-glucose glycation in human serum albumin model by measuring absorbance at 279 nm incubated for 26 days by UV spectroscopic analysis (reference value: 2.301); conditions: 624 h, time 26 day
[15] = target: T1, Albumin; assay: Inhibition of D-fructose glycation in human serum albumin model by measuring absorbance at 279 nm incubated for 30 days by UV spectroscopic analysis (reference value: 2.323); conditions: 720 h, time 30 day
[16] = target: T1, Albumin; assay: Inhibition of D-glucose glycation in human serum albumin model by measuring absorbance at 279 nm incubated for 3 days by UV spectroscopic analysis (reference value: 0.562); conditions: 72 h, time 3 day
[17] = target: T1, Albumin; assay: Inhibition of D-fructose glycation in human serum albumin model by measuring ketoamine moieties incubated for 3 days by Nitroblue tetrazolium (NBT) reduction assay (reference value: 152.64 nmol/mL); conditions: 72 h, time 3 day
[18] = target: T1, Albumin; assay: Inhibition of D-fructose glycation in human serum albumin model by measuring absorbance at 279 nm incubated for 7 days by UV spectroscopic analysis (reference value: 1.072); conditions: 168 h, time 7 day
[19] = target: T1, Albumin; assay: Inhibition of D-fructose glycation in human serum albumin model by measuring ketoamine moieties incubated for 14 days by Nitroblue tetrazolium (NBT) reduction assay (reference value: 129.58 nmol/mL); conditions: 336 h, time 14 day
[20] = target: T1, Albumin; assay: Inhibition of D-glucose glycation in human serum albumin model by measuring ketoamine moieties incubated for 7 days by Nitroblue tetrazolium (NBT) reduction assay (reference value: 35.92 nmol/mL); conditions: 168 h, time 7 day
[21] = target: T1, Albumin; assay: Inhibition of D-glucose glycation in human serum albumin model by measuring ketoamine moieties incubated for 14 days by Nitroblue tetrazolium (NBT) reduction assay (reference value: 28.69 nmol/mL); conditions: 336 h, time 14 day
[22] = target: T1, Albumin; assay: Inhibition of D-glucose glycation in human serum albumin model by measuring ketoamine moieties incubated for 33 days by Nitroblue tetrazolium (NBT) reduction assay (reference value: 66.64 nmol/mL); conditions: 792 h, time 33 day
[23] = target: T1, Albumin; assay: Inhibition of D-fructose glycation in human serum albumin model by measuring ketoamine moieties incubated for 30 days by Nitroblue tetrazolium (NBT) reduction assay (reference value: 128.71 nmol/mL); conditions: 720 h, time 30 day
[24] = target: T1, Albumin; assay: Inhibition of D-glucose glycation in human serum albumin model by measuring absorbance at 279 nm incubated for 7 days by UV spectroscopic analysis (reference value: […]); conditions: 168 h, time 7 day
[25] = target: T1, Albumin; assay: Inhibition of D-glucose glycation in human serum albumin model by measuring absorbance at 279 nm incubated for 33 days by UV spectroscopic analysis (reference value: 1.997); conditions: 792 h, time 33 day
[26] = target: T1, Albumin; assay: Inhibition of D-glucose glycation in human serum albumin model by measuring ketoamine moieties incubated for 26 days by Nitroblue tetrazolium (NBT) reduction assay (reference value: 28.79 nmol/mL); conditions: 624 h, time 26 day
[27] = target: T1, Albumin; assay: Inhibition of D-fructose glycation in human serum albumin model by measuring ketoamine moieties incubated for 7 days by Nitroblue tetrazolium (NBT) reduction assay (reference value: 125.33 nmol/mL); conditions: 168 h, time 7 day
[28] = target: T1, Albumin; assay: Inhibition of D-glucose glycation in human serum albumin model by measuring ketoamine moieties incubated for 5 days by Nitroblue tetrazolium (NBT) reduction assay (reference value: 18.58 nmol/mL); conditions: 120 h, time 5 day
[29] = target: T1, Albumin; assay: Inhibition of D-fructose glycation in human serum albumin model by measuring absorbance at 279 nm incubated for 14 days by UV spectroscopic analysis (reference value: 2.333); conditions: 336 h, time 14 day
[30] = target: T1, Albumin; assay: Inhibition of D-fructose glycation in human serum albumin model by measuring absorbance at 279 nm incubated for 5 days by UV spectroscopic analysis (reference value: 1.056); conditions: 120 h, time 5 day
[31] = target: T1, Albumin; assay: Inhibition of D-glucose glycation in human serum albumin model incubated for 14 days by UV spectroscopic analysis relative to control; conditions: 336 h, time 14 day
[32] = target: T1, Albumin; assay: Inhibition of D-fructose glycation in human serum albumin model by measuring absorbance at 279 nm incubated for 3 days by UV spectroscopic analysis (reference value: 0.492); conditions: 72 h, time 3 day

T1 sequence (P02768 whole entry): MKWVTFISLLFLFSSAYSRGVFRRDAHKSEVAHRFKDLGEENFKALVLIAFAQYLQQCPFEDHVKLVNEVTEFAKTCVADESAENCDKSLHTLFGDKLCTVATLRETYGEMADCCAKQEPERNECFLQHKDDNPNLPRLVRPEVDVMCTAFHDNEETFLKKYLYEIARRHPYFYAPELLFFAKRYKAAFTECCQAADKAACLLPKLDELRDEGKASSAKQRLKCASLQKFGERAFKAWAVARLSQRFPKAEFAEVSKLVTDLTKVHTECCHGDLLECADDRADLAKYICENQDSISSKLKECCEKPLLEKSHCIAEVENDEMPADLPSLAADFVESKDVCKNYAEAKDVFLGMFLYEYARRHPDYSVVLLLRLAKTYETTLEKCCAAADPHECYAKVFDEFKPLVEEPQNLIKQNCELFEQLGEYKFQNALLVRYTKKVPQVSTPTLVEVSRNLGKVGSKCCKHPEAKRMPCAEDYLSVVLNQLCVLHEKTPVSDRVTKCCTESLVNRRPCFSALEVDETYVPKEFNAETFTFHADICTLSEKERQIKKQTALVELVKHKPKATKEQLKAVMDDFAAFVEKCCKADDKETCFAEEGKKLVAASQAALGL

**Q.** Which results are given for `NCCC(=O)N[C@@H](Cc1cnc[nH]1)C(=O)O` [CARNOSINE]?
**A.** Activity [1]: 105.35 nmol/mL; inhibition (INH) [2]: 27.77%; Activity [3]: 143.12 nmol/mL; OD [4]: 1.662; Activity [5]: 20.51 nmol/mL; Activity [6]: 24.69 nmol/mL; OD [7]: 1.654; OD [8]: 2.127; OD [9]: 2.173; OD [10]: 0.684; inhibition (INH) [11]: 52.1%; inhibition (INH) [12]: 1.59%; Activity [13]: 113.02 nmol/mL; OD [14]: 2.274; OD [15]: 1.866; OD [16]: 0.562; Activity [17]: 144.52 nmol/mL; OD [18]: 0.756; Activity [19]: 124.63 nmol/mL; Activity [20]: 19.93 nmol/mL; Activity [21]: 25.34 nmol/mL; Activity [22]: 36.79 nmol/mL; Activity [23]: 123.84 nmol/mL; OD [24]: 0.609; OD [25]: 1.853; Activity [26]: 27.61 nmol/mL; Activity [27]: 119.64 nmol/mL; Activity [28]: 17.43 nmol/mL; OD [29]: 1.872; OD [30]: 1.024; inhibition (INH) [31]: 41.84%; OD [32]: 0.487
